Experiment [1] deals with K562. The experiment is described as follows: Antiproliferative activity against human K562 cells. Type of experiment: functional, cell-based.
Experiment [2] concerns T47D. The experiment is described as follows: Antiproliferative activity against human T47D cells. Type of experiment: functional, cell-based.
Experiment [3] has as its system COLO 205. As to the kind of experiment: Antiproliferative activity against human COLO205 cells. The class given is functional, cell-based.
Experiment [4] can be described thus: Selectivity index, ratio of IC50 for human CCD-18Co cells to IC50 for human K562 cells.
A short description of experiment [5]: Selectivity index, ratio of IC50 for human CCD-18Co cells to IC50 for human T47D cells.
Experiment [6] relates to CCD-18Co. The experiment is described as follows: Cytotoxicity against human CCD-18Co cells. The class given is cell-based.
A short description of experiment [7]: Selectivity index, ratio of IC50 for human CCD-18Co cells to IC50 for human COLO 205 cells.

Some results are limits rather than exact numbers.

The results in this text go back to ChEMBL document CHEMBL4673292, “Design, synthesis and anticancer activity of 2-amidomethoxy-1,4-naphthoquinones and its conjugates with Biotin/polyamine” (Bioorg Med Chem Lett, 2021).

Broadly, the IC50 is the concentration that inhibits the measured activity by half.

Take `O=C(COC1=CC(=O)c2c(O)cccc2C1=O)NCCCCCCO`: the values for the half-inhibitory concentration (IC50) in experiment [1], in experiment [2] and in experiment [3] were 3300 nM, 3300 nM and 2800 nM, respectively.

For the compound `NCCNC(=O)COC1=CC(=O)c2c(O)cccc2C1=O`, the IC50 in experiment [1] is 4100 nM; in experiment [2] it was 2800 nM; in experiment [3] it was 4700 nM.

For the compound `CC(C)(C)OC(=O)N1CCN(C(=O)COC2=CC(=O)c3c(O)cccc3C2=O)CC1`, the half-maximal inhibitory concentration (IC50) in experiment [1] is 1200 nM; in experiment [2], 800 nM; in experiment [3], 2300 nM.

As to `O=C(CCCCC1SCC2NC(=O)NC21)NCCCCCCNC(=O)COC1=CC(=O)c2ccccc2C1=O` (centres undefined), the IC50 was above 10000 nM in experiment [1], 1800 nM in experiment [2] and above 10000 nM in experiment [3].

`NCCCC(=O)NCCCCNC(=O)COC1=CC(=O)c2c(O)cccc2C1=O.O=C(O)C(F)(F)F.O=C(O)C(F)(F)F`: the “Ratio IC50” value in experiment [4], in experiment [5] and in experiment [7] was above 10 each time. For the same compound, the IC50 was determined as 1700 nM in experiment [1], 8300 nM in experiment [6], 1700 nM in experiment [2] and 1200 nM in experiment [3].

Take `CC(C)(C)OC(=O)NCCCCCCNC(=O)COC1=CC(=O)c2ccccc2C1=O`: the IC50 was 6700 nM in experiment [1], above 10000 nM in experiment [2] and above 10000 nM in experiment [3].

Turning to `O=C(O)C(F)(F)F.O=C1C(OCC(=O)N2CCNCC2)=CC(=O)c2c(O)cccc21`, the “Ratio IC50” value in experiment [4], in experiment [5] and in experiment [7] was above 10 in each case. For the same compound, the concentration for half-maximal inhibition (IC50) in experiment [1] worked out at 500 nM; in experiment [6], 8900 nM; in experiment [2], 600 nM; in experiment [3], 800 nM.

As for `O=C1NC2CSC(CCCCC(=O)N3CCN(C(=O)COC4=CC(=O)c5ccccc5C4=O)CC3)C2N1` (centres undefined), the IC50 in experiment [1] was determined as 1500 nM; in experiment [2] it was 1200 nM; in experiment [3] it was 2300 nM.

For `CC(C)(C)OC(=O)NCCCCCCNC(=O)COC1=CC(=O)c2c(O)cccc2C1=O`, the “Ratio IC50” value in experiment [4], in experiment [5] and in experiment [7] was above 10 each time. The half-maximal inhibitory concentration (IC50) in experiment [1] stood at 1000 nM; in experiment [6], 7300 nM; in experiment [2] it was 300 nM; in experiment [3], 1300 nM.

Take `NCCCCCCNC(=O)COC1=CC(=O)c2ccccc2C1=O`: the 50% inhibitory concentration (IC50) in experiment [1] was above 10000 nM; in experiment [2], 6500 nM; in experiment [3], above 10000 nM.

For the compound `NCC(CN)CCCCNC(=O)COC1=CC(=O)c2c(O)cccc2C1=O`, the figures for the concentration for half-maximal inhibition (IC50) in experiment [1], in experiment [2] and in experiment [3] were 5100 nM, 6100 nM and 5300 nM, respectively.

As for `NCCCCCCNC(=O)COC1=CC(=O)c2c(O)cccc2C1=O.O=C(O)C(F)(F)F`, the “Ratio IC50” value in experiment [4], in experiment [5] and in experiment [7] was above 10 in each case. In addition, the IC50 in experiment [1] was found to be 800 nM; in experiment [6], 8600 nM; in experiment [2] it was 600 nM; in experiment [3], 800 nM.

Turning to `NCCCCC(CN)CNC(=O)COC1=CC(=O)c2c(O)cccc2C1=O` (centres undefined), the values for the IC50 in experiment [1], in experiment [2] and in experiment [3] were above 10000 nM, 9600 nM and 7300 nM, respectively.

Regarding `CC(C)(C)OC(=O)NCC(CCCCNC(=O)COC1=CC(=O)c2c(O)cccc2C1=O)CNC(=O)CCCCC1SCC2NC(=O)NC21` (racemic), the IC50 in experiment [1] was above 10000 nM; in experiment [2], 7900 nM.

On to `O=C(CCCCC1SCC2NC(=O)NC21)NCCNC(=O)COC1=CC(=O)c2c(O)cccc2C1=O` (centres undefined), for which the 50% inhibitory concentration (IC50) in experiment [2] and in experiment [3] was above 10000 nM each time.

Turning to `CC(=O)NCCCCCCNC(=O)COC1=CC(=O)c2c(O)cccc2C1=O`, the figures for the 50% inhibitory concentration (IC50) in experiment [1], in experiment [2] and in experiment [3] were 2300 nM, 1200 nM and 2400 nM, respectively.

On to `CCCCCCCNC(=O)COC1=CC(=O)c2c(O)cccc2C1=O`, for which the IC50 in experiment [1] is 5700 nM; in experiment [2] it was 4600 nM; in experiment [3] it was above 10000 nM.

With `CC(C)(C)OC(=O)NCCNC(=O)COC1=CC(=O)c2c(O)cccc2C1=O`, the IC50 in experiment [1] came to 1100 nM; in experiment [2] it was 100 nM; in experiment [3] it was 1400 nM.

Take `O=C(CCCCC1SCC2NC(=O)NC21)NCCCCCCNC(=O)COC1=CC(=O)c2c(O)cccc2C1=O` (centres undefined): the “Ratio IC50” value in experiment [4], in experiment [5] and in experiment [7] was above 10 throughout. Also, the IC50 in experiment [1] was 1100 nM; in experiment [6], 9200 nM; in experiment [2] it was 500 nM; in experiment [3], 1400 nM.

On to `CC(C)(C)OC(=O)NCCCCC(CNC(=O)COC1=CC(=O)c2c(O)cccc2C1=O)NC(=O)OC(C)(C)C` (centres undefined), for which the IC50 in experiment [1] came out at 1300 nM; in experiment [2], 1400 nM; in experiment [3] it was 3100 nM.

With `COC(=O)CCCCCNC(=O)COC1=CC(=O)c2c(O)cccc2C1=O`, the IC50 in experiment [1] was 4900 nM; in experiment [2], 3600 nM; in experiment [3], 4400 nM.

On to `CC(C)(C)OC(=O)NCC(CCCCNC(=O)COC1=CC(=O)c2c(O)cccc2C1=O)NC(=O)OC(C)(C)C` (centres undefined), for which the IC50 in experiment [1] was determined as 1100 nM; in experiment [2], 1100 nM; in experiment [3], 1600 nM.
